Laboratory results as given in patent publication EP4782453A1 (Beyang Therapeutics Co., Ltd., priority 2023, dated 2025).

Each molecule was assayed against T1, Menin-MLL (Homo sapiens, UniProt O00255) (assay: Inhibitory activity against Menin-MLL binding (fluorescence polarization)). Details: Menin-MLL IC50, fluorescence polarization; 150 nM His-Menin, 15 nM FITC-MLL; 25°C for 60 min.
T1 construct: His-Menin (M1-L615 end); purchased BIORTUS BP9210
T1 sequence (O00255 1-615 isoform O00255-1): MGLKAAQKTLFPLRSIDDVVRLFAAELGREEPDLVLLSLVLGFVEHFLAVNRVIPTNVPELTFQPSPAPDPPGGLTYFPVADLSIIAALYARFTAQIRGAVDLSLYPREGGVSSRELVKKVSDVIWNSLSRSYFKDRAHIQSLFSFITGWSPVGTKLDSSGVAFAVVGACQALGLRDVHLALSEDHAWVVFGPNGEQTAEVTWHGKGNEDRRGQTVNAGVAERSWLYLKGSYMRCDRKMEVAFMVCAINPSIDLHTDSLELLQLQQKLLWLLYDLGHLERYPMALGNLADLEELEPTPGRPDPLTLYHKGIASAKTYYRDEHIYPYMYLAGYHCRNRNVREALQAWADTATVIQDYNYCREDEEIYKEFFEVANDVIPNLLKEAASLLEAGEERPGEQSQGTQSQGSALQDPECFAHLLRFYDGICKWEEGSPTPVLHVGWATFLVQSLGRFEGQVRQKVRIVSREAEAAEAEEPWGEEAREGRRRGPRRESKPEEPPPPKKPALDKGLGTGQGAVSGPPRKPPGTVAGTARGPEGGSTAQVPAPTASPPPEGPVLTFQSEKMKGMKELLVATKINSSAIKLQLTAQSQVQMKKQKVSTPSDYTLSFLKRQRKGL
Summary of the method: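 Fluorescence polarization competition: compound and 150 nM His-tagged menin (residues M1-L615) sit 15 min at 25 °C in pH 7.5 HEPES buffer with NaCl, DTT and BSA; 15 nM FITC-labelled MLL peptide then binds for 60 min. IC50 fitted sigmoidally from mP values, duplicate wells.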

Structure (SMILES) | IC50 [nM]
CCN(C(=O)c1cc(F)ccc1-c1cc(C2CCN(C[C@]3(F)CC[C@@H](NS(=O)(=O)CC)CC3)C2)cn2c(C)ncc12)C(C)C (stereo partly shown) [Compound 52, N-ethyl-5-fluoro-2-[3-methyl-6-(1-{[(1s,4s)-4-ethanesulfonamido-1-fluorocyclohexyl]methyl}pyrrolidin-3-yl)imidazo[1,5-a]pyridin-8-yl]-N-(isopropyl)benzamide] | 28.5
CCN(C(=O)c1cc(F)ccc1-c1cc([C@H]2CCN(C[C@H]3CC[C@H](NS(=O)(=O)CC)CC3)C2)cc2cncn12)C(C)C [Example 25-2, N-ethyl-5-fluoro-N-isopropyl-2-{7-[(3R)-1-{[(1r,4r)-4-ethanesulfonamidocyclohexyl]methyl}pyrrolidin-3-yl]imidazo[1,5-a]pyridin-5-yl}benzamide] | 21
CCN(C(=O)c1cc(F)ccc1-c1cc(C2CCN(C(=O)[C@@H]3CCCCN3)C2)cn2c(C)ncc12)C(C)C (stereo partly shown) [Example 97] | 210
CCN(C(=O)c1cc(F)ccc1-c1cc(N2CCN(CC[C@H]3CC[C@H](NS(=O)(=O)CC)CC3)CC2)cn2c(C)ncc12)C(C)C [Compound 65, N-ethyl-5-fluoro-2-[3-methyl-6-(4-{2-[(1r,4r)-4-ethanesulfonamidocyclohexyl]ethyl}piperazine-1-yl)imidazo[1,5-a]pyridin-8-yl]-N-(isopropyl)benzamide] | 136
CCN(C(=O)c1cc(F)ccc1-c1cc(N2CCN(C(=O)C3NC4CCC3CC4)CC2)cn2c(C)nc(Cl)c12)C(C)C [Example 93, 2-(1-chloro-3-methyl-6-{4-[(1R,3S,4S)-2-azabicyclo[2.2.2]octan-3-carbonyl]piperazin-1-yl}imidazo[1,5-a]pyridin-8-yl)-N-ethyl-5-fluoro-N-(isopropyl)benzamide] | 21
CCS(=O)(=O)N[C@H]1CC[C@H](CN2CC(Cc3cc(-c4ccc(F)cc4C(=O)N(CC(F)F)C(C)C)c4cnn(C)c4c3)C2)CC1 [Example 161, N-(2,2-difluoroethyl)-5-fluoro-2-{1-methyl-6-[(1-{[(1r,4r)-4-ethanesulfonamidocyclohexyl]methyl}azacyclobutan-3-yl)methyl]-1H-indazol-4-yl}-N-(isopropyl)benzamide] | 33.5

Same assay, conditions: fluorescence polarization; 150 nM His-Menin, 15 nM FITC-MLL; 25°C for 60 min; read-out: Menin-MLL IC50

IC50 [nM] | Structure (SMILES)
3.9 | CCN(C(=O)c1cc(F)ccc1-c1cc(C2CN([C@H](CCCN3CCOCC3)C(C)C)C2)cn2c(C)ncc12)C(C)C [Example 375, N-ethyl-5-fluoro-2-(3-methyl-6-{1-[(3R)-2-methyl-6-(morpholin-4-yl)hexan-3-yl]azacyclobutan-3-yl}imidazo[1,5-a]pyridin-8-yl)-N-(isopropyl)benzamide]
269 | Cc1nc(F)c2c(-c3ccc(F)cc3C(=O)N3CCOC[C@H]3C)cc(C3CN(C[C@H]4CC[C@@H](c5ncno5)CC4)C3)cn12 [Example 207-2, (3R)-4-{5-fluoro-2-[1-fluoro-3-methyl-6-(1-{[(1s,4s)-4-(1,2,4-oxadiazol-5-yl)cyclohexyl]methyl}azacyclobutan-3-yl)imidazo[1,5-a]pyridin-8yl]benzoyl}-3-methylmorpholine]
62 | C=C1CN[C@H](C(=O)N2CC(c3cc(-c4ccc(F)cc4C(=O)N(CC)C(C)C)c4c(F)nc(C)n4c3)C2)C1 [Example 130]
8 | CCC(=O)N1CCN(CCC[C@H](C(C)C)N2CC(c3cc(-c4ccc(F)cc4C(=O)N4CCOC[C@H]4C)c4c(F)nc(C)n4c3)C2)CC1 [Example 335]
23 | CCN(C(=O)c1cc(F)ccc1-c1cc(C2CCN(CC3CCC(NC(=O)OC(C)(C)C)CC3)C2)cc2cncn12)C(C)C (stereo not shown) [Example 24, N-(4-{[3-(5-{2-[ethyl(isopropyl)aminoformyl]-4-fluorophenyl}imidazo[1,5-a]pyridin-7-yl)pyrrolidin-1-yl]methyl}cyclohexyl)tert-butyl carbamate]
19 | CCN(C(=O)c1cc(F)ccc1-c1cc(C2CN([C@H](CCCN3CCNC4(COC4)C3)C(C)C)C2)cn2c(C)ncc12)C(C)C [Example 483, N-ethyl-5-fluoro-2-(3-methyl-6-{1-[(3R)-2-methyl-6-{2-oxa-5,8-diazaspiro[3.5]non-8-yl}hexan-3-yl]azacyclobutan-3-yl}imidazo[1,5-a]pyridin-8-yl)-N-(isopropyl)benzamide]
45 | CCN(C(=O)c1cc(F)ccc1-c1cc(C2CN(C(CN3CCC(OC)CC3)C(C)C)C2)cn2c(C)ncc12)C(C)C (stereo not shown) [Example 444]
4.2 | CCN(C(=O)c1cc(F)ccc1-c1cc(C2CN([C@H](CCCN3CCN(CCO)C(=O)C3)C(C)C)C2)cn2c(C)ncc12)C(C)C [Example 486, N-ethyl-5-fluoro-2-(6-{1-[(3R)-6-[4-(2-hydroxyethyl)-3-oxopiperazin-1-yl]-2-methylhexan-3-yl]azacyclobutan-3-yl}-3-methylimidazo[1,5-a]pyridin-8-yl)-N-(isopropyl)benzamide]
75 | COCCN(C)CCC[C@@H](C(C)C)N1CC(c2cc(-c3ccc(F)cc3C(=O)N3CCOC[C@H]3C)c3c(F)nc(C)n3c2)C1 [Example 200-2]
153 | CCN(C(=O)c1cc(F)ccc1-c1cc(N2CCN(C(=O)[C@H]3CCCN3)CC2)cn2c(C)ncc12)C(C)C [Example 106]
188 | CCN1CCN(CCC[C@@H](C(C)C)N2CC(c3cc(-c4ccc(F)cc4C(=O)N(CC)C(C)C)c4cnn(C)c4c3)C2)CC1 [Example 394-1, N-ethyl-2-(6-{1-[(3S)-6-(4-ethylpiperazin-1-yl)-2-methylhexan-3-yl]azacyclobutan-3-yl}-1-methyl-1H-indazol-4-yl)-5-fluoro-N-(isopropyl)benzamide]
57 | Cc1nc(F)c2c(-c3ccc(F)cc3C(=O)N3[C@H](C)COC[C@H]3C)cc(CC3CN(CC4CCOCC4)C3)cn12 [Example 229]
14 | CCN(C(=O)c1cc(F)ccc1-c1cc(C2CCN(CC3(O)CCC(NC(=O)OC(C)(C)C)CC3)C2)cn2c(C)ncc12)C(C)C (stereo not shown) [Compound 50, N-(4-{[3-(8-{2-[ethyl(isopropyl)aminoformyl]-4-fluorophenyl}-3-methylimidazo[1,5-a]pyridin-6-yl)pyrrolidin-1-yl]methyl}-4-hydroxylcyclohexyl)tert-butyl carbamate]
128 | CCN(C(=O)c1cc(F)ccc1-c1cc(C2CCN(C(=O)[C@H]3N[C@@H]4CC[C@H]3C4)C2)cn2cncc12)C(C)C (stereo partly drawn) [Example 38, 2-(6-{1-[(1R,3S,4S)-2-azabicyclo[2.2.1]heptan-3-carbonyl]pyrrolidin-3-yl}imidazo[1,5-a]pyridin-8-yl)-N-ethyl-5-fluoro-N-(isopropyl)benzamide]
140 | COCCN(C)CCCC(C(C)C)N1CC(c2cc(-c3ccc(F)cc3C(=O)N(CC(F)F)C(C)C)c3cnccn23)C1 (stereo not shown) [Example 147, N-(2,2-difluoroethyl)-5-fluoro-2-[6-(1-{6-[(2-methoxyethyl)(methyl)amino]-2-methylhexan-3-yl}azacyclobutan-3-yl)pyrrolo[1,2-a]pyrazin-8-yl]-N-(isopropyl)benzamide]
14 | CCN(C(=O)c1cc(F)ccc1-c1cc(C2CN(C(CCN3CCN(CCO)CC3)C(C)C)C2)cn2c(C)ncc12)C(C)C (stereo not shown) [Example 456, N-ethyl-5-fluoro-2-[6-(1-{1-[4-(2-hydroxyethyl)piperazin-1-yl]-4-methylpentan-3-yl}azacyclobutan-3-yl)-3-methylimidazo[1,5-a]pyridin-8-yl]-N-(isopropyl)benzamide]
2.9 | CCN(C(=O)c1cc(F)ccc1-c1cc(C2CN([C@H](CCCN3CCN(C4(CC#N)COC4)CC3)C(C)C)C2)cn2c(C)ncc12)C(C)C [Example 490, 2-(6-{1-[(3R)-6-{4-[3-(cyanomethyl)oxacyclobutan-3-yl]piperazin-1-yl}-2-methylhexan-3-yl]azacyclobutan-3-yl}-3-methylimidazo[1,5-a]pyridin-8-yl)-N-ethyl-5-fluoro-N-(isopropyl)benzamide]
14.5 | CCN(C(=O)c1cc(F)ccc1-c1cc(C2CN([C@@H](CCCN(C)CCOC)C(C)C)C2)cn2c(C)nc(F)c12)C(C)C [Example 307-1, N-ethyl-5-fluoro-2-(1-fluoro-6-{1-[(3S)-6-[(2-methoxyethyl)(methyl)amino]-2-methylhexan-3-yl]azacyclobutan-3-yl}-3-methylimidazo[1,5-a]pyridin-8-yl)-N-(isopropyl)benzamide]
220 | CCN(C(=O)c1cc(F)ccc1-c1cc(C2CN([C@@H](CCCN3CCN(CCO)CC3)C(C)C)C2)cc2c1cnn2C)C(C)C [Example 400-1]
89 | COCCN(C)CCCC(C(C)C)N1CC(Cc2cc(-c3ccc(F)cc3C(=O)N3CCOC[C@H]3C)c3cnn(C)c3c2)C1 (stereo partly shown) [Example 179]
424 | CC(C)CS(=O)(=O)N1CCC(CN2CC(c3cc(-c4ccc(F)cc4C(=O)N4CCOC[C@H]4C)c4cnn(C)c4c3)C2)CC1 [Example 176]
62.5 | CCN(C(=O)c1cc(F)ccc1-c1cc(C2CCN(CC3CCN(c4nnc(C)o4)CC3)C2)cn2cncc12)C(C)C (stereo not shown) [Example 46]
